Measurements published in patent US9597316B2, “Indole compounds for use in treating inflammation and cancer” (BIOVENTURES LLC, priority 2012, dated 2017).

Tests used:
[1] = system: panel of 60 human tumor cell lines; assay: single dose (10 μM) evaluation against panel of 60 human tumor cell lines; assay type: cell-based; details: any of the human cancer cell lines in the 60 cell panel
Procedure: (§1) The preliminary evaluation of compounds 3a-z was carried out at a single dose of 10 μM, against a panel of 60 human tumor cell lines, according to the procedure described by Rubinstein et al., Natl. Cancer. […] The human tumor cell line panel included leukemia, non-small cell lung, colon, central nervous system (CNS), melanoma, ovarian, renal, prostate, and breast cancer cell lines.

[2] = in water; cited from earlier work
[3] = system: K-562 (Leukemia); assay: five dose-response growth inhibition/cytotoxicity, K-562; assay type: cell-based, human; details: for CC50: read-out: LC50 (the source's name)
Procedure: as §1
(§2) Dose-response curves were created by plotting cytotoxic effect against the log10 of the drug concentration for each cell line. Cytotoxic effects of each compound were determined as GI50 and LC50 values, which represent the molar drug concentration for causing 50% growth inhibition, and the concentration that kills 50% of the cells, respectively.

[4] = system: HCT-15 (Colon Cancer); assay: five dose-response growth inhibition/cytotoxicity, HCT-15; assay type: cell-based, human; details: for CC50: read-out: LC50 (the source's name)
Procedure: as §1, §2

[5] = system: leukemia cell lines in the panel; assay: five dose-response growth inhibition, leukemia cell lines in the panel; assay type: cell-based, human; details: all four leukemia cell lines in the panel; read-out: GI50 values in the range
Procedure: as §1, §2

[6] = system: HCT-116 (Colon Cancer); assay: five dose-response growth inhibition/cytotoxicity, HCT-116; assay type: cell-based, human; details: for CC50: read-out: LC50 (the source's name)
Procedure: as §1, §2

[7] = system: SR (Leukemia); assay: five dose-response growth inhibition/cytotoxicity, SR; assay type: cell-based, human; details: for CC50: read-out: LC50 (the source's name)
Procedure: as §1, §2

[8] = system: NCI/ADR-RES (Ovarian Cancer); assay: five dose-response growth inhibition/cytotoxicity, NCI/ADR-RES; assay type: cell-based, human; details: for CC50: read-out: LC50 (the source's name)
Procedure: as §1, §2

[9] = system: MDA-MB-435 (Melanoma); assay: five dose-response growth inhibition/cytotoxicity, MDA-MB-435; assay type: cell-based, human; details: for CC50: read-out: LC50 (the source's name)
Procedure: as §1, §2

[10] = system: OVCAR-3 (Ovarian Cancer); assay: five dose-response growth inhibition/cytotoxicity, OVCAR-3; assay type: cell-based, human; details: for CC50: read-out: LC50 (the source's name)
Procedure: as §1, §2

[11] = system: SK-MEL-5 (Melanoma); assay: five dose-response growth inhibition/cytotoxicity, SK-MEL-5; assay type: cell-based, human; details: for CC50: read-out: LC50 (the source's name)
Procedure: as §1, §2

[12] = system: KM-12 (Colon Cancer); details: for CC50: read-out: LC50
[13] = system: U251 (CNS Cancer); assay: five dose-response growth inhibition/cytotoxicity, U251; assay type: cell-based, human; details: for CC50: read-out: LC50 (the source's name)
Procedure: as §1, §2

[14] = system: CCRF-CEM (Leukemia); assay: five dose-response growth inhibition/cytotoxicity, CCRF-CEM; assay type: cell-based, human; details: for CC50: read-out: LC50 (the source's name)
Procedure: as §1, §2

[15] = system: M14 (Melanoma); assay: five dose-response growth inhibition/cytotoxicity, M14; assay type: cell-based, human; details: for CC50: read-out: LC50 (the source's name)
Procedure: as §1, §2

[16] = system: SF-539 (CNS Cancer); assay: five dose-response growth inhibition/cytotoxicity, SF-539; assay type: cell-based, human; details: for CC50: read-out: LC50 (the source's name)
Procedure: as §1, §2

[17] = system: DU-145 (Prostrate Cancer); assay: five dose-response growth inhibition/cytotoxicity, DU-145; assay type: cell-based, human; details: for CC50: read-out: LC50 (the source's name)
Procedure: as §1, §2

[18] = system: UACC-62 (Melanoma); assay: five dose-response growth inhibition/cytotoxicity, UACC-62; assay type: cell-based, human; details: for CC50: read-out: LC50 (the source's name)
Procedure: as §1, §2

[19] = system: LOX IMVI (Melanoma); assay: five dose-response growth inhibition/cytotoxicity, LOX IMVI; assay type: cell-based, human; details: for CC50: read-out: LC50 (the source's name)
Procedure: as §1, §2

[20] = system: SF-268 (CNS Cancer); assay: five dose-response growth inhibition/cytotoxicity, SF-268; assay type: cell-based, human; details: for CC50: read-out: LC50 (the source's name)
Procedure: as §1, §2

[21] = system: HOP-62 (Non-Small Cell Lung Cancer); assay: five dose-response growth inhibition/cytotoxicity, HOP-62; assay type: cell-based, human; details: for CC50: read-out: LC50 (the source's name)
Procedure: as §1, §2

[22] = system: HL-60(TB) (Leukemia); details: for CC50: read-out: LC50
Procedure: as §1, §2

[23] = system: MOLT-4 (Leukemia); assay: five dose-response growth inhibition/cytotoxicity, MOLT-4; assay type: cell-based, human; details: for CC50: read-out: LC50 (the source's name)
Procedure: as §1, §2

[24] = system: three melanoma cell lines; assay: five dose-response growth inhibition, melanoma cell lines; assay type: cell-based, human; details: read-out: GI50 values in the range
Procedure: as §1, §2

[25] = five dose-response growth inhibition/cytotoxicity, UO-31; assay type: cell-based, human; details: for CC50: read-out: LC50 (the source's name)
Procedure: as §1, §2

[26] = system: HOP-92 non-small cell lung cancer; assay: five dose-response growth inhibition/cytotoxicity, HOP-92; assay type: cell-based, human; details: for CC50: read-out: LC50 (the source's name)
Procedure: as §1, §2

In the case of O=C1NC(=S)NC(=O)C1=Cc1cn(C(=O)c2ccc3ccccc3c2)c2ccccc12 [Compound 3x], the “cytotoxic potency against the 60 cell panel” value [1] is reported as “not identified as potent cytotoxic agents”.

For O=C1CC(=O)NC(=S)N1 [2-Thiobarbituric acid], the pKa [2] is listed as 2.1.

Work on COc1ccc(C(=O)n2cc(C=C3C(=O)NC(=S)NC3=O)c3cc(OC)ccc32)cc1 [Compound 3k] yielded a GI50 [3] of 2.55 µM, a CC50 [3] of over 50 µM and a GI50 [4] of 1.8 µM. It also gave a CC50 [4] of at least 50 µM, a GI50 [5] of 1.45 to 3.91 µM and a GI50 [6] of 1.95 µM. The CC50 [6] was at least 50 µM, the GI50 [7] was 1.45 µM and the CC50 [7] was 39.4 µM. It also gave a GI50 [8] of 2.91 µM, a CC50 [8] of over 50 µM and a GI50 ([9]; MDA-MB-435) of 0.85 µM. The CC50 ([9]; MDA-MB-435) was 3.86 µM, the GI50 ([9]; melanoma MDA-MB-435) was 0.85 µM and the GI50 [10] was 1.26 µM. It also gave a CC50 [10] of at least 50 µM, a GI50 [11] of 2.31 µM and a CC50 [11] of over 50 µM. It also gave a GI50 [12] of 1.99 µM, a CC50 [12] of at least 50 µM and a GI50 [13] of 1.93 µM. The CC50 [13] was over 50 µM, the GI50 [14] was 2.23 µM and the CC50 [14] was over 50 µM. It also gave a GI50 [15] of 2.03 µM, a CC50 [15] of over 50 µM and a GI50 [16] of 2.56 µM. The CC50 [16] was over 50 µM, the GI50 [17] was 2.41 µM and the CC50 [17] was over 50 µM. It also gave a GI50 [18] of 2.33 µM, a CC50 [18] of over 50 µM and a GI50 [19] of 1.86 µM. The CC50 [19] was at least 50 µM, the GI50 [20] was 2.65 µM and the CC50 [20] was over 50 µM. The GI50 [21] was 3.12 µM, the CC50 [21] was over 50 µM and the GI50 [22] was 3.91 µM. For the same compound, the CC50 [22] was over 50 µM.

For COc1ccc2c(c1)c(C=C1C(=O)NC(=S)NC1=O)cn2C(=O)c1ccc2ccccc2c1 [Compound 3z], the “cytotoxic potency against the 60 cell panel” value [1] was “not identified as potent cytotoxic agents”.

In the case of COc1ccc2c(c1)c(C=C1C(=O)NC(=S)NC1=O)cn2C(=O)c1cccc2ccccc12 [Compound 3w], the GI50 [23] is reported as 3.95 µM, the CC50 [23] is reported as over 100 µM and the GI50 [3] is reported as 3.52 µM. For the same compound, the CC50 [3] was over 100 µM, the GI50 [24] was 1.91 to 3.8 µM and the GI50 [4] was 3.1 µM. It also gave a CC50 [4] of over 100 µM, a GI50 [5] of 3.31 to 3.95 µM and a GI50 [6] of 3.35 µM. It also gave a CC50 [6] of over 100 µM, a GI50 [7] of 3.32 µM and a CC50 [7] of over 100 µM. For the same compound, the GI50 [8] was 3.14 µM, the CC50 [8] was over 100 µM and the GI50 [25] was 3.72 µM. The CC50 [25] was over 100 µM, the GI50 ([9]; MDA-MB-435) was 2.01 µM and the CC50 ([9]; MDA-MB-435) was 12 µM. For the same compound, the GI50 [10] was 2.38 µM, the CC50 [10] was 20.9 µM and the GI50 [13] was 3.23 µM. For the same compound, the CC50 [13] was over 100 µM, the GI50 [14] was 3.31 µM and the CC50 [14] was over 100 µM. The GI50 [15] was 1.91 µM, the CC50 [15] was over 100 µM and the GI50 [16] was 2.3 µM. For the same compound, the CC50 [16] was over 100 µM, the GI50 [19] was 3.8 µM and the CC50 [19] was over 100 µM. For the same compound, the GI50 [21] was 1.09 µM, the CC50 [21] was over 100 µM and the GI50 [26] was 1.09 µM. For the same compound, the CC50 [26] was at least 100 µM, the GI50 [22] was 3.47 µM and the CC50 [22] was over 100 µM.

With O=C1NC(=S)NC(=O)C1=Cc1cn(C(=O)c2cccc3ccccc23)c2ccccc12 [Compound 3t] the GI50 [23] was 3.49 µM, the CC50 [23] was 79 µM and the GI50 [3] was 3.71 µM. The CC50 [3] was over 100 µM, the GI50 [4] was 3.6 µM and the CC50 [4] was over 100 µM. It also gave a GI50 [5] of 2.74 to 3.71 µM, a GI50 [6] of 2.9 µM and a CC50 [6] of over 100 µM. The GI50 [7] was 2.74 µM, the CC50 [7] was 92.3 µM and the GI50 [8] was 2.59 µM. The CC50 [8] was over 100 µM, the GI50 [25] was 3.93 µM and the CC50 [25] was over 100 µM. For the same compound, the GI50 ([9]; MDA-MB-435) was 1.91 µM, the CC50 ([9]; MDA-MB-435) was 9.23 µM and the GI50 [10] was 2.46 µM. The CC50 [10] was 46.2 µM, the GI50 [13] was 3.58 µM and the CC50 [13] was 50.7 µM. The GI50 [14] was 3.35 µM, the CC50 [14] was over 100 µM and the GI50 [15] was 3.22 µM. The CC50 [15] was over 100 µM, the GI50 [16] was 3.68 µM and the CC50 [16] was 58.6 µM. The GI50 [19] was 3.59 µM, the CC50 [19] was 55.6 µM and the GI50 [21] was 1.3 µM. The CC50 [21] was 44.8 µM, the GI50 [26] was 1.3 µM and the CC50 [26] was 44.8 µM. The GI50 [22] was 3.36 µM and the CC50 [22] was over 100 µM.

With COc1ccc2c(c1)c(C=C1C(=O)NC(=S)NC1=O)cn2C(=O)c1ccccc1Br [Compound 3s] the GI50 [3] was 3.8 µM, the CC50 [3] was over 100 µM and the GI50 [4] was 3.83 µM. For the same compound, the CC50 [4] was 89.9 µM, the GI50 [5] was 2.55 to 4 µM and the GI50 [6] was 3.76 µM. It also gave a CC50 [6] of over 100 µM, a GI50 [7] of 2.55 µM and a CC50 [7] of over 100 µM. It also gave a GI50 [8] of 3.23 µM, a CC50 [8] of over 100 µM and a GI50 ([9]; MDA-MB-435) of 1.77 µM. It also gave a CC50 ([9]; MDA-MB-435) of 8.43 µM, a GI50 [10] of 2.77 µM and a CC50 [10] of 33.1 µM. It also gave a GI50 [11] of 3.47 µM, a CC50 [11] of over 50 µM and a GI50 [12] of 3.87 µM. For the same compound, the CC50 [12] was 51.9 µM, the GI50 [13] was 3.09 µM and the CC50 [13] was 42.1 µM. The GI50 [14] was 4 µM, the CC50 [14] was over 100 µM and the GI50 [15] was 3.52 µM. It also gave a CC50 [15] of over 100 µM, a GI50 [16] of 3 µM and a CC50 [16] of 57.8 µM. It also gave a GI50 [17] of 3.01 µM, a CC50 [17] of 53.6 µM and a GI50 [18] of 3.38 µM. For the same compound, the CC50 [18] was 39.6 µM, the GI50 [19] was 2.92 µM and the CC50 [19] was 47.9 µM. For the same compound, the GI50 [20] was 3.86 µM, the CC50 [20] was 52.2 µM and the GI50 [21] was 3.59 µM. It also gave a CC50 [21] of 64.3 µM, a GI50 [22] of 3.24 µM and a CC50 [22] of over 100 µM.
